Data from publication PMC4924682, “Monoamine oxidase A (MAO A) inhibitors decrease glioma progression” (Oncotarget, 2016).

How the values were obtained:
[1] = biological target: T1, Monoamine Oxidase A (MAO A) (Homo sapiens, UniProt P21397); experiment: radioassay of […]-5-HT turnover in U251S and U251R human glioma cells; format: cell-based
T1 construct: gene MAOA
T1 sequence (P21397 1-527): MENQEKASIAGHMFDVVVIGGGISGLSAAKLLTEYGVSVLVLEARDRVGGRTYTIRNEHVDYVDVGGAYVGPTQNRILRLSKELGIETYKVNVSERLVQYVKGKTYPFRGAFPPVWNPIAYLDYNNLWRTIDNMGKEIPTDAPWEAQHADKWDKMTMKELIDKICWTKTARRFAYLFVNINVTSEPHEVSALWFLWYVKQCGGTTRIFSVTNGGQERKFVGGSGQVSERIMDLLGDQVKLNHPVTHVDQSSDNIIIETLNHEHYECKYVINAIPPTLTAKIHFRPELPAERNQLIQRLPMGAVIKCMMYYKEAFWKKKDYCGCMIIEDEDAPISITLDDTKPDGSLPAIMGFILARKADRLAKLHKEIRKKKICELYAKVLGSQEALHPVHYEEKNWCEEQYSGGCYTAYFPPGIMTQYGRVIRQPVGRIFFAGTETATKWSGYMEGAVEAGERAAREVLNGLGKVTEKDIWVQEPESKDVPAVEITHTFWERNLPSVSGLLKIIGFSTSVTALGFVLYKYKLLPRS

[2] = biological target: T2, Monoamine Oxidase A (MAO A) (Mus musculus, UniProt Q64133); experiment: radioassay of […]-5-HT turnover in GL26 mouse glioma cells; format: cell-based
T2 construct: gene Maoa
T2 sequence (Q64133 1-526): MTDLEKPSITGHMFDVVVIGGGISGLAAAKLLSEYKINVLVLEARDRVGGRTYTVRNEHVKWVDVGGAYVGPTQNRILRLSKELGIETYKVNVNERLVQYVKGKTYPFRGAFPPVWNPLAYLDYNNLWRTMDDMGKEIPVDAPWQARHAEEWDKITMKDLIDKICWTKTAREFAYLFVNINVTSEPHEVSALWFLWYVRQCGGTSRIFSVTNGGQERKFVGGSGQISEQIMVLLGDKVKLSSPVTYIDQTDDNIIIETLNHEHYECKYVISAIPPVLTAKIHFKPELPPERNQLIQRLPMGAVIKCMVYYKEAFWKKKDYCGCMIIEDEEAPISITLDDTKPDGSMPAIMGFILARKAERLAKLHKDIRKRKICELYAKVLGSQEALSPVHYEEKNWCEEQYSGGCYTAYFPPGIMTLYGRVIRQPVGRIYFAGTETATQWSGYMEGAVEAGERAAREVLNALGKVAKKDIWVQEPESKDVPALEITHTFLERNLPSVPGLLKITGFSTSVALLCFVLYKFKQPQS

NCCc1c[nH]c2ccc(O)cc12 [serotonin]
radioassay of 14C-5-HT turnover in U251S and U251R human glioma cells [1]: MAO A catalytic activity was determined in human and mouse glioma cell lines using serotonin as the substrate | radioassay of 14C-5-HT turnover in GL26 mouse glioma cells [2]: MAO A catalytic activity was determined in human and mouse glioma cell lines using serotonin as the substrate
